Values quoted from earlier work as cited in patent publication US10376519B2, “Tricyclic lactams for use in HSPC-sparing treatments for Rb-positive abnormal cellular proliferation” (G1 Therapeutics, Inc., priority 2014, dated 2019).

What was measured:
[1] = in vivo
[2] = Grade 3/4 neutropenia and leukopenia, clinical trial studies

T1/2 [1]: roughly 26.7 hours
patients requiring a dose interruption [2]: 71%
patients requiring a dose reduction [2]: 35%
SMILES: CC(=O)c1c(C)c2cnc(Nc3ccc(N4CCNCC4)cn3)nc2n(C2CCCC2)c1=O [palbociclib, 6-acetyl-8-cyclopentyl-5-methyl-2-(5-piperazin-1-yl-pyridin-2-ylammino)-8H-pyrido-[2,3-d]-pyrimidin-7-one]
